The values that follow come from ChEMBL document CHEMBL1201862, “PubChem BioAssay data set” (2004).

Each structure is given as a SMILES string.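 Tested at 5 concentrations; 48 h exposure; 96-well plates; endpoints linearly interpolated, else capped at highest concentration. At the GI50, growth is halved.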 Activity calls are given as the source filed them. Rule as the data show it: active = GI50 up to about 1.1 µM and inactive = higher.

Some test systems named below: HCT-116; SK-MEL-2; HT-29; SNB-75; K562; HL-60; NCI-H460; SF-268; MCF7; SNB-19; A549; ACHN; SW-620; SK-MEL-28; SK-MEL-5; SN12C; HCT-15; KM12; HOP-92; A498.
Test in all cases: NCI tumour cell line growth inhibition, 48 h

In the case of `C=C(Br)CN(C)CC(=C)Br`, the GI50 in the assay on HCT-116, with SK-MEL-2, with HT-29, with SNB-75, in the assay on K562 and in the assay on HL-60 was > 100 µM (inactive) in each case. Moreover, the GI50 in the assay on NCI-H460, in the assay on SF-268, in the assay with MCF7, with SNB-19, in the assay with A549 and in the assay on ACHN was > 100 µM (inactive) each time. Also, the GI50 in the assay on SW-620 was > 100 µM (inactive); with SK-MEL-28, > 100 µM (inactive); in the assay on SK-MEL-5 it was > 100 µM (inactive); with SN12C it was > 100 µM (inactive); in the assay on HCT-15, over 100 µM; in the assay with KM12 it was > 100 µM (inactive). Besides, the GI50 with HOP-92 and in the assay with A498 was > 100 µM (inactive) each time.

`CN(C)c1ccc(/C=C/c2ccnc3ccc4ccccc4c23)cc1`: the GI50 was 36.5 µM (inactive) in the assay with HCT-116; 25.6 µM (inactive) in the assay on SK-MEL-2; 43.5 µM (inactive) with HT-29; 26.5 µM (inactive) in the assay on SNB-75; 53 µM (inactive) in the assay on K562; > 100 µM (inactive) with HL-60. Further, the GI50 with NCI-H460 is 29.6 µM (inactive); with SF-268 it was 39.7 µM (inactive); in the assay on MCF7, 0.0873 µM (active); in the assay with SNB-19, 33.9 µM (inactive); in the assay with A549, 35.7 µM (inactive); in the assay with ACHN it was 22.8 µM (inactive). Further, the GI50 in the assay with SW-620 is 47 µM (inactive); with SK-MEL-28, 38.5 µM (inactive); in the assay on SK-MEL-5 it was 71 µM (inactive); in the assay on SN12C it was 74.3 µM (inactive); in the assay with HCT-15 it was 45.9 µM; in the assay with KM12 it was 33.3 µM (inactive). Also, the GI50 in the assay with HOP-92 is 73.1 µM (inactive); in the assay with A498, 24.8 µM (inactive).

As for `COc1cccc(CCn2c(N)c(C#N)c3ccc([N+](=O)[O-])cc3c2=O)c1`, the GI50 with HCT-116 is > 46.5 µM (inactive); with SK-MEL-2, > 46.5 µM (inactive); with HT-29, > 31.6 µM (inactive); with SNB-75 it was > 46.5 µM (inactive); in the assay with K562, 0.283 µM (active); in the assay with HL-60, 3.78 µM (inactive). Besides, the GI50 was > 46.5 µM (inactive) with NCI-H460; > 46.5 µM (inactive) with SF-268; > 31.6 µM (inactive) with MCF7; 98.2 µM (inactive) in the assay on SNB-19; > 46.5 µM (inactive) with A549; > 46.5 µM (inactive) in the assay with ACHN. Besides, the GI50 in the assay on SW-620 was > 100 µM (inactive); in the assay with SK-MEL-28 it was > 100 µM (inactive); in the assay with SK-MEL-5, > 100 µM (inactive); in the assay with SN12C, > 100 µM (inactive); with HCT-15 it was over 31.6 µM; with KM12 it was > 31.6 µM (inactive). For the same compound, the GI50 in the assay with HOP-92 is > 31.6 µM (inactive); in the assay on A498, > 100 µM (inactive).

For `CCC1C(=O)C[C@H]2[C@@H]3C(O)CC4=CC(=O)CC[C@]4(C)[C@H]3CC[C@]12C` (stereo not given in full), the GI50 with HCT-116, with SK-MEL-2, in the assay on HT-29, in the assay on SNB-75, in the assay with K562 and in the assay on HL-60 was > 50 µM (inactive) each time. Moreover, the GI50 with NCI-H460, in the assay with SF-268, in the assay with MCF7, in the assay on SNB-19, with A549 and in the assay with ACHN was > 50 µM (inactive) each time. Further, the GI50 was > 50 µM (inactive) with SW-620; > 50 µM (inactive) in the assay on SK-MEL-28; > 50 µM (inactive) in the assay with SK-MEL-5; > 50 µM (inactive) in the assay on SN12C; over 50 µM in the assay on HCT-15; > 50 µM (inactive) with KM12. Also, the GI50 in the assay with HOP-92 and in the assay on A498 was > 50 µM (inactive) throughout.

As to `C=C(Cl)C(Br)(CCl)CCC(Br)C(C)(C)Cl` (stereo not given), the GI50 in the assay with HCT-116 is 1.72 µM (inactive); in the assay on SK-MEL-2, 6.24 µM (inactive); in the assay with HT-29, 2.02 µM (inactive); with SNB-75, 3.6 µM (inactive); with K562, 2.44 µM (inactive); in the assay on HL-60 it was 2.43 µM (inactive). Further, the GI50 in the assay on NCI-H460 was 6.81 µM (inactive); with SF-268 it was 2.93 µM (inactive); with MCF7 it was 3.38 µM (inactive); in the assay with SNB-19, 3.48 µM (inactive); in the assay with A549, 17.7 µM (inactive); in the assay on ACHN, 7.96 µM (inactive). Also, the GI50 in the assay with SW-620 is 1.71 µM (inactive); in the assay with SK-MEL-28 it was 4.68 µM (inactive); in the assay on SK-MEL-5, 2.47 µM (inactive); in the assay with SN12C, 2.84 µM (inactive); in the assay with HCT-15, 3.26 µM; in the assay with KM12 it was 6.87 µM (inactive). Moreover, the GI50 is 9.75 µM (inactive) in the assay on HOP-92 and 17.7 µM (inactive) with A498.

In the case of `C/C(CC(O)(C(F)(F)F)C(F)(F)F)=N/Nc1ccc([N+](=O)[O-])cc1[N+](=O)[O-]`, the GI50 was 1.75 µM (inactive) in the assay on HCT-116; 2.28 µM (inactive) in the assay with SK-MEL-2; 2.69 µM (inactive) in the assay on HT-29; 2.69 µM (inactive) with SNB-75; 2.44 µM (inactive) in the assay with K562; 2.94 µM (inactive) in the assay with HL-60. Also, the GI50 is 3.11 µM (inactive) in the assay with NCI-H460; 2.81 µM (inactive) in the assay on SF-268; 2.97 µM (inactive) with MCF7; 3.27 µM (inactive) in the assay with SNB-19; 2.54 µM (inactive) with A549; 2.56 µM (inactive) in the assay with ACHN. Further, the GI50 is 3.44 µM (inactive) in the assay on SW-620; 3.27 µM (inactive) in the assay with SK-MEL-28; 1.68 µM (inactive) in the assay on SK-MEL-5; 3.7 µM (inactive) in the assay with SN12C; 2.85 µM in the assay with HCT-15; 3.21 µM (inactive) in the assay on KM12. Moreover, the results for the GI50 in the assay with HOP-92 and with A498 were 1.8 µM (inactive) and 2.39 µM (inactive), respectively.

With `CC1OC(n2cc(F)c(=O)[nH]c2=O)CCC1O` (stereo not given), the GI50 in the assay with HCT-116 was 78 µM (inactive); in the assay with SK-MEL-2 it was > 100 µM (inactive); with HT-29, 98.9 µM (inactive); with SNB-75, > 72.9 µM (inactive); in the assay with K562, > 100 µM (inactive); in the assay with HL-60, > 79.4 µM (inactive). The GI50 in the assay with NCI-H460 is 50.8 µM (inactive); in the assay with SF-268 it was > 100 µM (inactive); with MCF7 it was 30.1 µM (inactive); in the assay on SNB-19, > 100 µM (inactive); in the assay with A549, 67.5 µM (inactive); in the assay on ACHN it was > 95.9 µM (inactive). The GI50 in the assay on SW-620 is > 100 µM (inactive); with SK-MEL-28 it was > 100 µM (inactive); in the assay on SK-MEL-5, > 56.2 µM (inactive); with SN12C, > 100 µM (inactive); in the assay on HCT-15 it was over 94.4 µM; with KM12 it was > 96.2 µM (inactive). For the same compound, the GI50 with HOP-92 is > 100 µM (inactive); with A498 it was > 66.5 µM (inactive).

As for `Nc1nc(Cl)cc(NCC2(CO)CCC(OCc3ccccc3)C2)n1` (stereo not given), the GI50 with HCT-116 is 16.9 µM (inactive); in the assay with SK-MEL-2, 21.3 µM (inactive); in the assay with HT-29, 11.1 µM (inactive); in the assay on SNB-75, 12.4 µM (inactive); with K562, 7.26 µM (inactive); in the assay on HL-60 it was 21.4 µM (inactive). Further, the GI50 with NCI-H460 is 19.3 µM (inactive); in the assay with SF-268, 26.2 µM (inactive); with MCF7, 1.59 µM (inactive); in the assay with SNB-19, 23.1 µM (inactive); in the assay on A549, 15.2 µM (inactive); in the assay with ACHN, 5.69 µM (inactive). Moreover, the GI50 in the assay on SW-620 was 60 µM (inactive); with SK-MEL-28, 19.5 µM (inactive); in the assay with SK-MEL-5, 2.82 µM (inactive); in the assay with SN12C, 8.89 µM (inactive); in the assay on HCT-15 it was 15 µM; in the assay with KM12, 21 µM (inactive). For the same compound, the GI50 in the assay on HOP-92 is 3.57 µM (inactive); in the assay on A498, 8.24 µM (inactive).

As to `CN(C)/C=N/CC(O)c1ccccc1` (stereo not given), the GI50 with HCT-116, with SK-MEL-2, with HT-29, with SNB-75, with K562 and in the assay on HL-60 was > 100 µM (inactive) in each case. Besides, the GI50 in the assay with NCI-H460, in the assay with SF-268, in the assay with MCF7, in the assay with SNB-19, with A549 and with ACHN was > 100 µM (inactive) each time. For the same compound, the GI50 is > 100 µM (inactive) in the assay on SW-620; > 100 µM (inactive) with SK-MEL-28; > 100 µM (inactive) with SK-MEL-5; > 100 µM (inactive) in the assay on SN12C; over 100 µM in the assay with HCT-15; > 100 µM (inactive) with KM12. In addition, the GI50 with HOP-92 and with A498 was > 100 µM (inactive) in each case.

As to `C=C(C)COc1ccc2c(c1)CCC1C2CCC2(C)C(=O)/C(=N/O)CC12` (stereo not given), the GI50 in the assay with HCT-116 was 1.52 µM (inactive); in the assay on SK-MEL-2, 4.14 µM (inactive); with HT-29 it was 1.31 µM (inactive); in the assay with SNB-75 it was 1.9 µM (inactive); in the assay on K562, 2.73 µM (inactive); in the assay with HL-60, 1.78 µM (inactive). Further, the GI50 with NCI-H460 is 1.57 µM (inactive); in the assay with SF-268 it was 3.81 µM (inactive); in the assay on MCF7, 2.9 µM (inactive); with SNB-19 it was 11.8 µM (inactive); in the assay on A549, 9.62 µM (inactive); in the assay with ACHN it was 3.12 µM (inactive). For the same compound, the GI50 in the assay on SW-620 is 1.99 µM (inactive); in the assay with SK-MEL-28 it was 17.2 µM (inactive); in the assay on SK-MEL-5, 8.11 µM (inactive); with SN12C it was 3.13 µM (inactive); with HCT-15 it was 2.41 µM; in the assay on KM12, 2.19 µM (inactive). The GI50 with HOP-92 is 2.3 µM (inactive); with A498 it was 11.1 µM (inactive).
